{"source": "patent US12139729B2", "about": "“Neurodegenerative disorders” (priority 2013, dated 2024)", "system": "PC12 cells", "assay": "Sulforhodamine B (SRB) cell viability assay", "format": "cell-based", "description": "Wild-type PC12 cell were provided by Sigma-Aldrich (St. Louis, MO). The culture was routinely plated in 100 mm dishes (Corning) coated with collagen (2 μg/cm^2) and maintained in growth medium with Minimum Essential Medium Eagle (MEM) supplemented with heat-inactivated 10% horse serum (HS) and 5% foetal bovine serum (FBS), 10 mM HEPES, 2 mM L-Glutamine and 1:400 Penicillin/streptomycin solution. Cells were maintained at 37° C. in a humidified atmosphere 5% CO2 and the medium was replaced every 2 days. For splitting, cells were dislodged from the dish using a pipette with medium, with a portion of these replated onto new cultured dishes. Cells were used between passages 12 and 25.\nThe cell viability assay used was the sulforhodamine B (SRB) colorimetric assay for toxicity screening. The day before of the experiment cells were seeded onto collagen-coated 96-well plates in a concentration of 40,000 cells/well. Cell concentration was determined by the Fuchs-Rosenthal chamber. […] After treatment, medium was replaced and cells were fixed by adding 100 μl of 10% Trichloroacetic Acid (TCA) for 1 h at 4° C. Thereafter, cells were washed with H2O and stained with 100 μl of a 0.057% SRB solution in 1% Acetic acid (HAc) for 30 minutes at room temperature. After staining cells were washed with 1% HAc for removing the excess of SRB and then incubated with 200 μl of 10 mM Tris base (pH 10.5) and shake it for 5 minutes to solubilise the protein-bound dye. Measurement of the absorbance took place in a VMax Kinetic Microplate Reader (Molecular Devices) at 490 nm.", "note": "Residues, ends and D or L forms follow the SMILES beside them.", "data": [{"compound": "CSCC[C@@H]1NC(=O)[C@H](Cc2ccc(O)cc2)NC(=O)[C@H](CO)NC(=O)[C@H](CO)NC(=O)[C@H](Cc2c[nH]c3ccccc23)NC(=O)[C@H](CCCNC(=N)N)NC(=O)[C@H](Cc2c[nH]cn2)NC(=O)[C@H](Cc2ccccc2)NC(=O)[C@H](CCC(=O)O)NC(=O)[C@H](C)NC(=O)[C@H](CCCCN)NC(=O)[C@H](Cc2c[nH]c3ccccc23)NC(=O)[C@H](Cc2c[nH]cn2)NC(=O)[C@H](C(C)C)NC1=O", "note": "[Cyclic T14] (cyclo(AEFHRWSSYMVHWK))", "values": [{"measurement": "protection against non-specific cytotoxic effect of H2O2 (H2O2 alone vs combined)", "setting": "H2O2 100 μM + Cyclic T14 100 nM, PC12", "value": "no significant difference"}, {"measurement": "threshold dose for full protection against β-amyloid", "setting": "PC12, 1 hour", "value": 1, "unit": "nM"}, {"measurement": "minimum effective concentration against β-Amyloid (10 μM) on cell viability", "setting": "PC12, FIG. 8", "value": 1, "unit": "nM"}, {"measurement": "blocks β-Amyloid at low doses (Table 3 feature)", "setting": "✓ = Dream Drug feature 'Blocks β-Amyloid at low doses 1 nM)'", "value": "✓"}]}]}
